In test [1] the test system is extracellular release of miR-146a. Description: Extracellular release of miR-146a from cultured human keratinocytes (RT-qPCR). The format is cell-based. As to the method: Primary human keratinocytes were cultured as previously described (Chen et al. J. Biol. Chem. 2016, 291, 10252-10262). In brief, surgically discarded foreskin samples, obtained from Duke Children's Hospital in accordance to institutionally approved IRB protocol, were incubated with Dispase (Gibco, Gaithersburg, MD, 4 U/mL) for 12-16 h at 4° C. followed by 0.05% trypsin (Gibco, Gaithersburg, MD) for 10-20 min at 37° C. Cells were maintained in keratinocyte serum-free media (Invitrogen, Waltham, MA) with 5% CO2 at 37° C. and used at passage 2-3.
Measurement of released vesicles and extracellular miR-146a from cultured keratinocytes or sera Medium for the cultured keratinocytes was replaced with serum-free medium 2 h before LPC stimulation. Fifteen minutes after LPC, the supernatant of the cells was harvested and subjected to two steps of centrifugation (i) 300 g for 5 min to eliminate remaining cells, (ii) 16,000 g for 30 min to eliminate cell debris and apoptotic bodies. Finally, cell-free supernatants were further purified using a Vesicular Isolation kit (Invitrogen, Waltham, MA) according to the manufacturer's instructions, with final product resuspended in ice-cold PBS. Total RNA extraction was then carried out using a Total RNA Isolation kit (Invitrogen, Waltham, MA). […]
A general note: Real-time PCR tracks product formation cycle by cycle.

The test system is the same in test [2]. Kind of test: Extracellular release of miRs from cultured mouse keratinocytes (RT-qPCR). The format is cell-based. As to conditions: mouse keratinocytes. As to the method:
Primary mouse keratinocytes were cultured following previous protocol (Chen et al. J. Biol. Chem. 2016, 291, 10252-10262). The epidermis from the back skin of newborn WT or keratinocyte-Trpv4 cKO mice was separated from the dermis by floating the skin on 0.25% trypsin (Gibco, Gaithersburg, MD) for 14-18 h at 4° C. Basal keratinocytes were separated from the cornified sheets by filtration through a […] cell strainer. Keratinocytes were plated on collagen I-coated dishes or glass coverslips and grown in EME media (Gibco, Gaithersburg, MD) containing 8% chelex (Bio-rad, Hercules, CA)-treated FBS with the final Ca^2+ adjusted to 0.05 mM, bovine pituitary extract (50 μg/mL), epidermal growth factor (5 ng/mL), and lx antibiotics/antimycotics (Gibco, Gaithersburg, MD) in a humidified incubator with 5% CO2 at 37° C. for 5-7 days until use. To knockdown Trpv4 in isolated keratinocytes from newborn keratinocyte-Trpv4 cKO mice, cells were treated with 4-OH tamoxifen at 500 nM for 72 h.
Measurement of released vesicles and extracellular miR-146a from cultured keratinocytes or sera Medium for the cultured keratinocytes was replaced with serum-free medium 2 h before LPC stimulation. […] Finally, cell-free supernatants were further purified using a Vesicular Isolation kit (Invitrogen, Waltham, MA) according to the manufacturer's instructions, with final product resuspended in ice-cold PBS. Total RNA extraction was then carried out using a Total RNA Isolation kit (Invitrogen, Waltham, MA). Enrichment for small RNAs was carried out by sequential increase in ethanol concentration and passing through glass-fiber filters. RNase free water was used to elute small RNAs in the final elution step. For human PBC sera or sera from ANIT-treated mice, RNA was isolated using Qiagen miRNeasy Plasma/Serum kit. cDNA synthesis from extracted RNAs was performed according to manufacturer's instructions (qSTAR miRNA kit, Origene). For qPCR, the stem-loop oligonucleotides specific for the following miRs are as follows: miR-146a-5p (GAGAACTGAATTCCATGGG, SEQ ID NO: 4), miR-let-7b (GAGGTAGTAGGTTGTGTGG, SEQ ID NO: 5), miR-125b-1 (CCCT GAGACCCTAACTTG, SEQ ID NO: 6), miR-203 (GTGGTTC TTGACAGTTCAAC, SEQ ID NO: 7), and miR-16-5p (AGCAGCAC GTAAATATTGGC, SEQ ID NO: 8). Primers were purchased from Integrated DNA Technologies company (Coralville, IA). qPCR reactions for each sample were run in triplicates, including no-template controls. MiR-16-5p was selected as a control due to the relative constancy of its expression in various cultured cell lines (Schwarzenbach et al. Clin. Chem. 2015, 61, 1333-1342). qPCR for this miR was performed in tandem with target miRs to determine the optimal normalization procedure. To investigate the effects of the specific TRPV4 inhibitors GSK205 or HC067047 and the specific MEK inhibitor U0126 on LPC-induced extracellular release of miR-146a, cells were incubated with the inhibitors for 15 min before stimulation. Control cells received the same volume of vehicle.
Vesicular release from cultured keratinocytes was quantified by detecting acetylcholinesterase (AChE) activity in the extracellular release fluid. (Gupta et al. Am. J. Physiol. Heart Circ. Physiol. 2007, 292, H3052-3056; Malik et al. Methods Mol. Biol. 2016, 1448, 237-248). CBQCA Protein Quantitation Kit (Molecular Probes, Eugene, OR) was used to assess the total protein amounts of each sample. Quantitation was carried out according to kit instructions (Fluorocet, Systems Biosciences, Palo Alto, CA). Briefly, vesicles were lysed to release esterase enzyme whose activity is measured using a florescence dye, excitation at 544 nm and emission at 590 nm. Fluostar Optima (BMG Labtech, Cary, NC) microplate reader was used to measure esterase activity. 500 ng protein equivalent of input was used per well. […]

The text below walks through data of patent publication US20240002846A1, “COMPOSITIONS AND METHODS FOR THE DIAGNOSIS AND TREATMENT OF ITCH” (Duke University, priority 2020, published 2024).

“Also recorded” adds a separate entry of the source.

In the case of `Cc1c(C(=O)Nc2cccc(C(F)(F)F)c2)cc(-c2ccccc2)n1CCCN1CCOCC1` [HC067047], the “effect of TRPV4 inhibitors on LPC-induced release of miR-146a” value in test [1] (inhibitor 10 μM) and in test [2] (inhibitor 10 μM) was “completely eliminated” throughout.
`N#CC(=C(/N)Sc1ccccc1N)/C(C#N)=C(\N)Sc1ccccc1N` [U0126]: the “effect of MEK inhibitor on LPC-induced release of miR-146a” value in test [1] (10 μM) and in test [2] (10 μM) was “eliminated; also recorded: abolished” in each case.
